From patent US20150191484A1, “NOVEL COMPOUNDS HAVING A TETRACYCLIC IRIDOID SKELTON AND AN ANTI-TRYPANOSOMAL AGENT COMPRISING THE SAME AS AN ACTIVE INGREDIENT” (NATIONAL UNIVERSITY CORPORATION TOKYO MEDICAL AND DENTAL …, priority 2014, published 2015)

Assays:
KATOIII (stomach cancer) = assay: MTT cytotoxicity assay, KATOIII; assay type: cell-based, human; settings: IC50 against KATOIII / IC50 against T. brucei
Procedure: (§1) The cytotoxic activity of natural products against mammalian cells is an important point in the search for active compounds with biological activity. […] In order to confirm the selective and potent anti-trypanosomal activity of ML-2-2 and ML-2-3, we examined their cytotoxicity in a panel of human cell lines including two human fibroblastic and 8 human cancer-derived cell lines. Cells were seeded in 96-well microplates and incubated with ML-2-2 and ML-2-3 for 48 h at 37° C. in a 5% CO2 humidified incubator. The viabilities of cells were determined with the MTT (3-(4,5-dimethylthiazol-2-yl)-2-5-diphenyltetrazolium bromide) assay. The selectivity index (SI) was determined using the following equation: IC50 against human cells/IC50 against T. brucei. The IC50 values of ML-2-3 were higher than those of ML-2-2 in all the cell lines examined. […] The SI of ML-2-2 indicates values below 1.00 in most cell lines. On the other hand, SI values of ML-2-3 were much higher than those of ML-2-2 in all tested cell lines.

[1] = MTT cytotoxicity assay, KATOIII; assay type: cell-based, human; settings: human, KATOIII stomach cancer cells; KATOIII stomach cancer, 48 h, MTT
Procedure: as §1

Trypanosoma cells [2] = assay: Nexin apoptosis assay (FACS); assay type: cell-based, Trypanosoma brucei brucei
Procedure: (§2) The GUTat 3.1 strain of the bloodstream forms of T. b. brucei parasites was used for this study. Parasites were cultured in vitro according to the conditions established by Yabu et al, 1998.
(§3) Parasites were used when they reached a confluent concentration of 1×10^6 parasites/ml. Estimation of parasitemia was done with the Neubauer's counting chamber. Parasites were diluted to a concentration of 3×10^5 parasites/ml with HMI-9 medium and used for the various experiments.
This assay was performed to detect both Phosphatidylserine (PS) signal and fracture of nuclear membraneas markers of apoptosis. Seeding and incubation of parasites with plant materials (extracts, fractions and compounds) were done under the same conditions in Alamar Blue assay. […] The contents of the wells were then subjected to FACS analysis using, the Millipore guava easyCyte 5HT FACS machine for the sorting and estimation of apoptotic parasites according to the manufacturer's instructions.

HCT-15 (colon cancer) = assay: MTT cytotoxicity assay, HCT-15; assay type: cell-based, human
Procedure: as §1

[3] = MTT cytotoxicity assay, HCT-15; assay type: cell-based, human; settings: human, HCT-15 colon cancer cells; HCT-15 colon cancer, 48 h, MTT
Procedure: as §1

various human cells = assay: MTT cytotoxicity, panel of human cell lines (summary); assay type: cell-based; settings: IC50 against human cells / IC50 against Trypanosoma
Text: ML-2-3 has low cytotoxicity on mammalian cells. The cytotoxicity of ML-2-3 is very low compared to the cytotoxicity of ML-2-2. The cytotoxicity of ML-2-2 and ML-2-3 on mammalian cells can be compared as IC50 value. The usefulness of the compounds for a therapeutic agent for mammals including humans can be compared by a selectivity index (SI). For a compound to be accepted as a useful therapeutic agent for mammals means that the compound should have high anti-trypanosomal activity but low cytotoxicity on mammals. The selectivity index (SI) is represented by an equation: IC50 of cytotoxicity on mammalian cells/IC50 of anti-trypanosomal activity. In particular, it is represented by an equation: IC50 against human cells/IC50 against Trypanosoma such as Trypanosoma brucei. […] IC50 (μM) of ML-2-3 against HF-19 and HCT-15 is more than 50, which means that ML2-3 is non-toxic at the highest assayed dose in HF-19 and HCT-15. […]
The cytotoxic activity of natural products against mammalian cells is an important point in the search for active compounds with biological activity. […] The viabilities of cells were determined with the MTT (3-(4,5-dimethylthiazol-2-yl)-2-5-diphenyltetrazolium bromide) assay. The selectivity index (SI) was determined using the following equation: IC50 against human cells/IC50 against T. brucei. […]

THP-1 (leukemia) = assay: MTT cytotoxicity assay, THP-1; assay type: cell-based, human; settings: IC50 against THP-1 / IC50 against T. brucei
Procedure: as §1

[4] = MTT cytotoxicity assay, THP-1; assay type: cell-based, human; settings: human, THP-1 leukemia cells; THP-1 leukemia, 48 h, MTT
Procedure: as §1

Trypanosoma cells [5] = assay: Multi-caspase apoptosis assay (FACS); assay type: cell-based, Trypanosoma brucei brucei; settings: 5 μM
Procedure: as §2, §3
This assay was performed to investigate multi-caspase signals as markers of apoptosis. Seeding and incubation of parasites were as for the other experiments. After 24 hours of incubation, 10% Caspase Reagent Working Solution was added to each well. The plate was incubated for 1 h at 37° C. under 5% CO2 in air. The plate was washed twice with 1× apoptosis wash buffer, centrifuged for 5-7 min and the supernatant aspirated off. Two hundred microlitres (200 μl) working solution of Caspase 7-AAD was added to each well and mixed thoroughly to re-suspend parasites. The plate was incubated for 10 min at room temperature and subjected to FACS analysis using, the Millipore guava easyCyte 5HT FACS machine for the sorting and estimation of apoptotic parasites according to the manufacturer's instructions.

[6] = MTT cytotoxicity assay, NB1RGB; assay type: cell-based, human; settings: human, NB1RGB normal fibroblast cells; NB1RGB normal fibroblast, 48 h, MTT
Procedure: as §1

[7] = system: NB1RGB (normal fibroblast); assay: MTT cytotoxicity assay, NB1RGB; assay type: cell-based, human; settings: IC50 against NB1RGB / IC50 against T. brucei
Procedure: as §1

Caco2 (colon cancer) = assay: MTT cytotoxicity assay, Caco2; assay type: cell-based, human; settings: IC50 against Caco2 / IC50 against T. brucei
Procedure: as §1

[8] = MTT cytotoxicity assay, Caco2; assay type: cell-based, human; settings: human, Caco2 colon cancer cells; Caco2 colon cancer, 48 h, MTT
Procedure: as §1

[9] = system: HF-19 (normal fibroblast); assay: MTT cytotoxicity assay, HF-19; assay type: cell-based, human
Procedure: as §1

[10] = MTT cytotoxicity assay, HF-19; assay type: cell-based, human; settings: human, HF-19 normal fibroblast cells; HF-19 normal fibroblast, 48 h, MTT
Procedure: as §1

COc1cc(/C=C2/C(=O)O[C@]34C=C[C@@H]5C(C(=O)O)=CO[C@H](O[C@@H]23)[C@@H]54)ccc1O [ML-2-3, (3aS,4aR,4a^1S,7aS,9aS,3E)-3-(4-hydroxy-3-methoxybenzylidene)-2-oxo-2,3,3a,4a,4a^1,7a-hexahydro-1,4,5-trioxadicyclopenta[a,hi]indene-7-carboxylic acid]
SI (selectivity index) (KATOIII (stomach cancer)): 6.62
IC50 at 48 h [1]: 24.8 µM
proportion of cells at early stage of apoptosis (Trypanosoma cells [2]; 5 μM, 3 hours incubation): 2.5%
proportion of cells at early stage of apoptosis (Trypanosoma cells [2]; 5 μM, 12 hours of incubation): about 10%
incubation time at which significant increase in proportion of late stage apoptotic cells was observed (Trypanosoma cells [2]; 5 μM, time course 0, 3, 6, 9 and 12 hours): around 6 hours
induction of apoptosis (Trypanosoma cells [2]; 6.25 μM, 24-hour incubation): induced strong apoptosis
early stage apoptotic cells (Trypanosoma cells [2]; 6.25 μM, 24-hour incubation, negative control 0.2%): 7.8%
late stages apoptotic cells (Trypanosoma cells [2]; 6.25 μM, 24-hour incubation, negative control none): 4.4%
induction of apoptosis in Trypanosoma cells (Trypanosoma cells [2]; same concentration (6 μM)): strongly induced apoptosis
cytotoxicity (in words) (HCT-15 (colon cancer); HCT-15, highest assayed dose): non-toxic at the highest assayed doses
SI (selectivity index) (HCT-15 (colon cancer); IC50 against HCT-15 / IC50 against T. brucei): >13.33
IC50 at 48 h [3]: > 50 µM
selectivity index (SI), range over the human cell lines (various human cells): ≥ 3.2 to more than 13
SI (selectivity index) (THP-1 (leukemia)): 4.11
IC50 at 48 h [4]: 15.4 µM
late-apoptosis cells (Trypanosoma cells [5]; control cells 0.40%): 4.2%
mid-apoptosis cells (Trypanosoma cells [5]; control cells 1.05%): 7%
IC50 at 48 h [6]: 37.4 µM
SI (selectivity index) [7]: 9.96
SI (selectivity index) (Caco2 (colon cancer)): 11.88
IC50 at 48 h [8]: 44.6 µM
cytotoxicity (in words) ([9]; HF-19, highest assayed dose): non-toxic at the highest assayed doses
SI (selectivity index) ([9]; IC50 against HF-19 / IC50 against T. brucei): >13.33
IC50 at 48 h [10]: > 50 µM
